Results on 22 compounds are retold here after US8461328B2, “Tricyclic heterocyclic compounds, compositions and methods of use thereof” (Genentech, Inc., priority 2010, dated 2013).

What all share (format): biochemical
For one test, the target named is T1, JAK2 (Homo sapiens, UniProt O60674).
T1 construct: made in house; host or cells: SF9 insect cells (baculovirus)
The test can be described thus: JAK2 inhibition (Table 4). As to conditions: read-out: JAK2 Ki.

A further test has as its target T2, JAK1 (Homo sapiens, UniProt P23458).
T2 construct: made in house; host or cells: SF9 insect cells (baculovirus)
The test can be described thus: JAK1 inhibition (Table 4). As to conditions: read-out: JAK1 Ki.

Another test deals with T3, JAK3 (Homo sapiens, UniProt P52333).
T3 construct: made in house; host or cells: SF9 insect cells (baculovirus)
The test can be described thus: JAK3 inhibition (Table 4). The conditions noted are these: read-out: JAK3 Ki.

The target in a further test is T4, TYK2 (Homo sapiens, UniProt P29597).
T4 construct: made in house; host or cells: SF9 insect cells (baculovirus)
T4 sequence (P29597 873-1187): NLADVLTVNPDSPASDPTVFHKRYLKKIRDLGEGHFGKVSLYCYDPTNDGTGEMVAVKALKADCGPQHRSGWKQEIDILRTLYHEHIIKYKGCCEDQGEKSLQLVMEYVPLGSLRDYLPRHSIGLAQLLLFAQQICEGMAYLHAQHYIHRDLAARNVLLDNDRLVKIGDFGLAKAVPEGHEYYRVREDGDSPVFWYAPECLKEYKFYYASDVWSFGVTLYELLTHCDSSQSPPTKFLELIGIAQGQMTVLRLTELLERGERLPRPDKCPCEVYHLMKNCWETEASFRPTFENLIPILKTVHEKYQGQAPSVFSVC
The test can be described thus: TYK2 inhibition (Table 4).

T2 sequence (P23458 852-1154): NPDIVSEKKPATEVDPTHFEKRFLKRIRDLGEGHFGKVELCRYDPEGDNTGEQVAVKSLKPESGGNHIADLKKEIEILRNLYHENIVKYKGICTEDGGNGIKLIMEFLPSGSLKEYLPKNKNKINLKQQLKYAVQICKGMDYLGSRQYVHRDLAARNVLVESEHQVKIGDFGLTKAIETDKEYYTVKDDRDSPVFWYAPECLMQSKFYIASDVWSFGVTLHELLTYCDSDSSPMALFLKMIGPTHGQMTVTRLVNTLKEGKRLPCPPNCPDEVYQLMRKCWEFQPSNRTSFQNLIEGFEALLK
T3 sequence (P52333 783-1124): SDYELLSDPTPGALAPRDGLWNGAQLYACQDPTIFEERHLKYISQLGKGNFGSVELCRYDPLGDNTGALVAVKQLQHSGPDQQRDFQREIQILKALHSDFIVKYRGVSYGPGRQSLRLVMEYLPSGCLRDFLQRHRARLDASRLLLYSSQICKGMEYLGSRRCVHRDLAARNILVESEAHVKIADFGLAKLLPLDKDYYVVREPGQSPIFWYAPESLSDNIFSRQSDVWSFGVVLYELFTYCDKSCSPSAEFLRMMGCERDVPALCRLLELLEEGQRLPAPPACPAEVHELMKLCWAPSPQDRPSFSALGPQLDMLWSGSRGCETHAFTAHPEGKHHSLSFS
T1 sequence (O60674 812-1132): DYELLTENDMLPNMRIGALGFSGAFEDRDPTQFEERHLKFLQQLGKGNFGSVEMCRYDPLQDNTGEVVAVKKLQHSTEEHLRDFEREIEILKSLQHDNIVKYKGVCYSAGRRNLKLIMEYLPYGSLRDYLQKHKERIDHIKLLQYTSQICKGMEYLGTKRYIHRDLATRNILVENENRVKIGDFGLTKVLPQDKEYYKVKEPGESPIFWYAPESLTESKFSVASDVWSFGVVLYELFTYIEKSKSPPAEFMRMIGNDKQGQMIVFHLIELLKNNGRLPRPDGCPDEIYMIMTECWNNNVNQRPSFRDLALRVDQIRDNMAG

By Ki is commonly meant a measure of affinity in units of concentration, obtained from inhibition or displacement. For `CN1CCC(C(=O)N2CCC(n3cnc4cnc5[nH]ccc5c43)CC2)C1` (racemic) [Example 452, (1-Methyl-pyrrolidin-3-yl)-[4-(6H-1,3,5,6-tetraaza-as-indacen-1-yl)-piperidin-1-yl]-methanone], the figures for the Ki at JAK2 and at JAK1 were 1170 nM and 316 nM, respectively.

`Cc1nc2cnc3[nH]ccc3c2n1C(C)C1CCCO1` (single isomer, unassigned) [Example 427, 2-Methyl-1-[1-(tetrahydro-furan-2-yl)-ethyl]-1,6-dihydro-1,3,5,6-tetraaza-as-indacene]: the inhibitory constant (Ki) at JAK2 came to 167 nM; at JAK1, 201 nM.

`CN1CCCC(C(=O)N2CCC(n3cnc4cnc5[nH]ccc5c43)CC2)C1` (single isomer, unassigned) [Example 453, (1-Methyl-piperidin-3-yl)-[4-(6H-1,3,5,6-tetraaza-as-indacen-1-yl)-piperidin-1-yl]-methanone]: the figures for the inhibition constant Ki on JAK2 and on JAK1 were 1410 nM and 263 nM, respectively.

For `CN1CCCC(C(=O)N2CCC(n3cnc4cnc5[nH]ccc5c43)CC2)C1` (single isomer, unassigned) [Example 454, (1-Methyl-piperidin-3-yl)-[4-(6H-1,3,5,6-tetraaza-as-indacen-1-yl)-piperidin-1-yl]-methanone], the results for the inhibition constant Ki at JAK2 and on JAK1 were 1310 nM and 547 nM, respectively.

As to `COCC(=O)NC1CCCC(n2cnc3cnc4[nH]ccc4c32)C1` (single isomer, unassigned) [Example 483, 2-Methoxy-N-[3-(6H-1,3,5,6-tetraaza-as-indacen-1-yl)-cyclohexyl]-acetamide], the inhibition constant (Ki) on JAK3 is 613 nM; on JAK2, 832 nM; at JAK1, 472 nM.

For the compound `c1cc2c(ncc3nc(C4CCCN4)n(C4CCCOC4)c32)[nH]1` (single isomer, unassigned) [Example 665], the Ki worked out at 1780 nM at JAK3, 1800 nM on JAK2 and 432 nM on JAK1.

Consider `c1cc2c(ncc3nc(C4CCCN4)n(C4CCCOC4)c32)[nH]1` (single isomer, unassigned) [Example 666], for which the Ki was determined as 4010 nM at JAK3 and 1690 nM at JAK1.

For `c1cc(N2CCC[C@@H](n3cnc4cnc5[nH]ccc5c43)C2)ccn1` [Example 13, (R)-1-(3,4,5,6-Tetrahydro-2H-[1,4]bipyridinyl-3-yl)-1,6-dihydro-1,2,3,5,6-tetraaza-as-indacene], the values for the Ki on JAK3, on JAK2 and at JAK1 were 1840 nM, 898 nM and 179 nM, respectively.

As to `CC(=O)N1CCC(n2c(C(F)(F)CN)nc3cnc4[nH]ccc4c32)CC1` [Example 139, 1-{4-[2-(2-Amino-1,1-difluoro-ethyl)-6H-1,2,3,5,6-tetraaza-as-indacen-1-yl]-piperidin-1-yl}-ethanone], the Ki on JAK3 amounted to 1450 nM; on JAK2, 930 nM; on JAK1 it was 339 nM.

For `c1cncc(-c2nc3cnc4[nH]ccc4c3n2C2CCNCC2)c1` [Example 153, 1-Piperidin-4-yl-2-pyridin-3-yl-1,6-dihydro-1,2,3,5,6-tetraaza-as-indacene], the Ki on JAK3 was 784 nM; at JAK2 it was 587 nM; on JAK1 it was 181 nM.

On to `CC(C)(O)Cc1nc2cnc3[nH]ccc3c2n1C1CCNCC1` [Example 173, 2-Methyl-1-(1-piperidin-4-yl-1,6-dihydro-1,2,3,5,6-tetraaza-as-indacen-2-yl)-propan-2-ol], for which the Ki at JAK3 worked out at 3900 nM; on JAK1, 215 nM.

With `CC(C)(C)OC(=O)N1CC(F)(F)C[C@H]1C(=O)N1CCC(n2cnc3cnc4[nH]ccc4c32)CC1` [Example 243, (S)-4,4-Difluoro-2-[4-(6H-1,3,5,6-tetraaza-as-indacen-1-yl)-piperidine-1-carbonyl]-pyrrolidine-1 carboxylic acid tert-butyl ester], the inhibition constant (Ki) is 446 nM at JAK2 and 357 nM at JAK1.

In the case of `COCCC(=O)N1CCC[C@@H](n2c([C@@H](C)O)nc3cnc4[nH]ccc4c32)C1` [Example 784, 1-{(R)-3-[2-((R)-1-Hydroxy-ethyl)-6H-1,3,5,6-tetraaza-as-indacen-1-yl]-piperidin-1-yl}-3-methoxy-propan-1-one], the Ki on JAK1 was determined as 224 nM.

Turning to `CC(O)c1nc2cnc3[nH]ccc3c2n1C1CCCN(C(=O)C2CC(=O)N(C)C2)C1` (centres unmarked) [Example 787, 4-{3-[2-(1-Hydroxy-ethyl)-6H-1,3,5,6-tetraaza-as-indacen-1-yl]-piperidine-1-carbonyl}-1-methyl-pyrrolidin-2-one], the Ki on JAK3 came to 2490 nM; at JAK1, 464 nM.

In the case of `CC(O)c1nc2cnc3[nH]ccc3c2n1C1CCCN(C(=O)CC2CCCO2)C1` (centres unmarked) [Example 789, 1-{3-[2-(1-Hydroxy-ethyl)-6H-1,3,5,6-tetraaza-as-indacen-1-yl]-piperidin-1-yl}-2-(tetrahydro-furan-2-yl)-ethanone], the inhibitory constant (Ki) on JAK1 was 438 nM.

On to `COC1CCC(C(=O)N2CCCC(n3c(C(C)O)nc4cnc5[nH]ccc5c43)C2)CC1` (centres unmarked) [Example 799, {3-[2-(1-Hydroxy-ethyl)-6H-1,3,5,6-tetraaza-as-indacen-1-yl]-piperidin-1-yl}-(4-methoxy-cyclohexyl)-methanone], for which the Ki at JAK1 worked out at 456 nM.

With `CS(=O)(=O)NCc1nc2cnc3[nH]ccc3c2n1C1CCN(CC(F)F)CC1` [Example 914, N-{1-[1-(2,2-Difluoro-ethyl)-piperidin-4-yl]-1,6-dihydro-1,3,5,6-tetraaza-as-indacen-2-ylmethyl}-methanesulfonamide], the Ki on TYK2 turned out to be 40.3 nM; at JAK3, 60.6 nM; at JAK2, 35.4 nM.

In the case of `CC1CCCCC1n1c(CNS(C)(=O)=O)nc2cnc3[nH]ccc3c21` (centres unmarked) [Example 917, N-[1-(2-Methyl-cyclohyl)-1,6-dihydro-1,3,5,6-tetraaza-as-indacen-2-ylmethyl]-methanesulfonamide], the results for the Ki on TYK2, at JAK3 and on JAK2 were 112 nM, 65 nM and 73.6 nM, respectively.

For `CC(=O)NCc1nc2cnc3[nH]ccc3c2n1C1CCCCC1` [Example 918, N-(1-Cyclohyl-1,6-dihydro-1,3,5,6-tetraaza-as-indacen-2-ylmethyl)-acetamide], the Ki on TYK2 was 30.1 nM; on JAK3, 60 nM; on JAK2, 93.9 nM.

In the case of `CC(C)N1CCCC[C@H]1C(=O)N1CCC(n2cnc3cnc4[nH]ccc4c32)CC1` [Example 950, ((S)-1-Isopropyl-piperidin-2-yl)-[4-(6H-1,3,5,6-tetraaza-as-indacen-1-yl)-piperidin-1-yl]-methanone], the Ki came to 1420 nM at JAK2 and 255 nM at JAK1.

`COCCN1CCCC[C@H]1C(=O)N1CCC(n2cnc3cnc4[nH]ccc4c32)CC1` [Example 952, [(S)-1-(2-Methoxy-ethyl)-piperidin-2-yl]-[4-(6H-1,3,5,6-tetraaza-as-indacen-1-yl)-piperidin-1-yl]-methanone]: the Ki on JAK2 was determined as 628 nM; at JAK1 it was 142 nM.

Take `Cc1nc2cnc3[nH]ccc3c2n1[C@H]1CC[C@@H](C(C)(C)O)CC1` [Example 958, Cis-2-[4-(2-Methyl-6H-1,3,5,6-tetraaza-as-indacen-1-yl)-cyclohexyl]-propan-2-ol]: the figures for the Ki on TYK2, on JAK3 and on JAK2 were 14.3 nM, 36.8 nM and 5.13 nM, respectively.
